Test results reported in patent US6479509B1, “Method of promoting smoking cessation” (priority 2000, dated 2002).
“Also recorded” adds a separate entry of the source. Read-outs that look alike come from different tables or passages of the source.

Legend:
[1] = system: nicotine-induced antinociception; experiment: Blockade of nicotine-induced antinociception, tail-flick test; assay type: in vivo, mice; conditions: for AD50 Tail-Flick: blocking antinociception of nicotine 2.5 mg/kg, systemic administration; for Tail-flick, % blockade @ dose: s.c.
Method: Anitinociception. The tail-flick method of D'Amour and Smith (1941) as modified by Dewey et al. (1970) was used. A control response (2-4 s) was determined for each animal before treatment, and a test latency was determined after drug administration. To minimize tissue damage, a maximum latency of 10 s was imposed. Antinociceptive response was calculated as percent maximum possible effect (% MPE), where % MPE=[((test-control)/(10-control))×100], Groups of 8 to 12 animals were used for each dose and for each treatment. Mice were tested 5 min after nicotine administration for the dose-response evaluation. Antagonism studies were carried out by pretreating the mice s.c. with either saline or various drugs at different times before nicotine. The animals were tested 5 min after administration of nicotine.
(§1) Data were analyzed statistically by an analysis of variance followed by the Fisher's P least-significant difference multiple comparison test. The null hypothesis was rejected at the […].

Dopamine transporter = biological target: T1, Dopamine transporter (Rattus norvegicus, UniProt P23977)
T1 construct: from tissue; host or cells: brain
T1 sequence (P23977 whole entry): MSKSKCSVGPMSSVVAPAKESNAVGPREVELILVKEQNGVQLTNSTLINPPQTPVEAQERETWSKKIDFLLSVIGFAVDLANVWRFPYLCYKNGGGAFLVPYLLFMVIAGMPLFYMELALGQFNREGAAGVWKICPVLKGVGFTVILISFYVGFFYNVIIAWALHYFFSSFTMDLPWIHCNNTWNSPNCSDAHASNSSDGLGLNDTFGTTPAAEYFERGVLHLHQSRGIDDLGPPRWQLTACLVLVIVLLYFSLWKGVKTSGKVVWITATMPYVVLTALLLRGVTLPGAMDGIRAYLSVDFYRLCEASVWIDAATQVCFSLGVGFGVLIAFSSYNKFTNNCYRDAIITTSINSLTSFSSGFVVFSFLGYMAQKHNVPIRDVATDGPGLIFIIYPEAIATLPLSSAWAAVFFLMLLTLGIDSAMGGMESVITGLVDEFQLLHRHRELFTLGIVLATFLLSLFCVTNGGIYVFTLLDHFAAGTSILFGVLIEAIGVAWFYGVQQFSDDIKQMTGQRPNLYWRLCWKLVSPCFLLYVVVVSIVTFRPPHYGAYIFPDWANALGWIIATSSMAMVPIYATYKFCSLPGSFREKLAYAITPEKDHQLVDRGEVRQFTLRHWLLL

Serotonin transporter = biological target: T2, Serotonin transporter (Rattus norvegicus, UniProt P31652)
T2 construct: from tissue; host or cells: brain
T2 sequence (P31652 whole entry): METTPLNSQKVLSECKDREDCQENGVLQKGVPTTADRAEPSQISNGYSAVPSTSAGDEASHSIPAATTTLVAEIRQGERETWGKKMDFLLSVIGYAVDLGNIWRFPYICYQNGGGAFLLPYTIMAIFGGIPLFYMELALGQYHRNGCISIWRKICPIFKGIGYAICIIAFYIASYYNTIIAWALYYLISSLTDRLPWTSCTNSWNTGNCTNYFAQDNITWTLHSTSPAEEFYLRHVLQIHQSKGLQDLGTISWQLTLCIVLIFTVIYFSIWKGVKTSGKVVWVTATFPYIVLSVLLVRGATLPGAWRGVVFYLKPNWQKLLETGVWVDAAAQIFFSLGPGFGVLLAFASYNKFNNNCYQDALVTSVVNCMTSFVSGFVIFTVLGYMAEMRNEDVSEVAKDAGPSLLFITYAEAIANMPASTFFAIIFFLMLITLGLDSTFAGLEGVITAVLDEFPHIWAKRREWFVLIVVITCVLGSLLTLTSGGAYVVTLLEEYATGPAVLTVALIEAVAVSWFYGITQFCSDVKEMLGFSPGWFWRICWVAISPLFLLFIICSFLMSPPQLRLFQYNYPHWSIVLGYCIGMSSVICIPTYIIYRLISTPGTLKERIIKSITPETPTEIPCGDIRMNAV

[2] = system: nicotine-induced hypothermia; experiment: Blockade of nicotine-induced hypothermia (body temperature); assay type: in vivo, mice; conditions: mice; for AD50 Hypothermia: blocking nicotine-induced hypothermia, systemic administration
Method: Body Temperature. Rectal temperature was measured by a thermistor probe (inserted 24 mm) and digital thermometer (Yellow Springs Instrument Co., Yellow Springs, Ohio). Readings were taken just before and at 30 min after the s.c. injection of nicotine. For antagonism studies, mice were pretreated with either saline or various drugs 10 min before nicotine. The difference in rectal temperature before and after treatment was calculated for each mouse. The ambient temperature of the laboratory varied from 21 to 24° C. from day to day.
as §1

[3] = biological target: T3, Norepinephrine transporter (Rattus norvegicus, UniProt Q63380)
T3 construct: from tissue; host or cells: brain
T3 sequence (Q63380 1-617): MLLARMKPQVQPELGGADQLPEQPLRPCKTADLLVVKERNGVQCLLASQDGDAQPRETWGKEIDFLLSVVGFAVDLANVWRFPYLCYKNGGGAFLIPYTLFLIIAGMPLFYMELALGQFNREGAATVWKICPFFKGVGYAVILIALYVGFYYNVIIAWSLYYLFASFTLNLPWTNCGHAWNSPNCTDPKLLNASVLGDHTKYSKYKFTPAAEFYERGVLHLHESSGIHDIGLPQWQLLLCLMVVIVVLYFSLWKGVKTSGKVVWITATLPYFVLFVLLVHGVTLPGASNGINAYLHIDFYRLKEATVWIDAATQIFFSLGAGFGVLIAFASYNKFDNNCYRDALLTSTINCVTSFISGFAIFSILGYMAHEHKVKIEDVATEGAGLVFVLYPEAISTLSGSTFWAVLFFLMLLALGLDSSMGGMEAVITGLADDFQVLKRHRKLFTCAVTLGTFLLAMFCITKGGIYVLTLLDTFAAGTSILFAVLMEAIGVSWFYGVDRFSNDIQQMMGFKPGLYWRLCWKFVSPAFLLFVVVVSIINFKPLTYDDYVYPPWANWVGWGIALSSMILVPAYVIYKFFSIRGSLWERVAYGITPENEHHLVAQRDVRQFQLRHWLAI

[4] = brain; read-out: Dopamine [3H]WIN 35,428 IC50; cited from earlier work
[5] = brain; read-out: Serotonin [3H]Paroxetine IC50; cited from earlier work
[6] = brain; read-out: Norepinephrine [3H]Nisoxetime IC50; cited from earlier work
[7] = read-out: Dopamine [3H]WIN 35,428 IC50; brain; cited from earlier work
[8] = read-out: Norepinephrine [3H]Nisoxetime IC50; brain; cited from earlier work

Row | SMILES | AD50 Tail-Flick ([1]; mice) | IC50 (Dopamine transporter; [4]) | IC50 (Serotonin transporter; [5]) | IC50 [3, 6] | Relative potency in blocking nicotine's antinociceptive effect (in words, comparator in the value) ([1]; tail-flick, mice) | other results
1 | COC(=O)[C@H]1[C@@H](c2ccc(Br)cc2)C[C@H]2CC[C@@H]1N2C [RTI-51] | 1.0 μmol/hg | 1.69 nM | 10.6 nM |  |  | 
2 | COC(=O)[C@H]1[C@@H](c2ccccc2)C[C@@H]2CC[C@H]1N2C [WIN 35,065-2, reference compound] | 8.0 μmol/hg | 23 nM |  | 920 nM |  | Times less potent than cocaine in blocking nicotine's antinociceptive effect ([1]; tail-flick, mice): 2.5 times; AD50 Hypothermia [2]: 6.7 μmol/hg; Blockade of nicotine-induced hypothermia (in words) [2]: significantly blocked
3 | CN1[C@H]2CC[C@@H]1[C@@H](C(=O)Oc1ccccc1)[C@@H](c1ccc(Cl)cc1)C2 [RTI-113] | 5.6 μmol/hg | 1.98 nM | 2340 nM | 2930 nM |  | 
4 | CCN(CC)CC(=O)Nc1c(C)cccc1C [Lidocaine, reference compound] |  |  |  |  |  | Tail-flick, % blockade @ dose ([1]; @ 75 μmol/hg): 7% @ 75; Blockade of nicotine-induced antinociception (in words) ([1]; tail-flick, mice): failed to significantly block
5 | CN1C2CCC1C(C(=O)N1CCCC1)C(c1ccc(I)cc1)C2 (centres unmarked) [RTI-229] | 3.6 μmol/hg |  |  |  | about the same potency as cocaine | IC50 (Dopamine transporter; [7]): 0.37 nM; IC50 (Serotonin transporter; read-out: Serotonin [3H]Paroxetine IC50; brain; cited from earlier work): 1790 nM; IC50 [3, 8]: 990 nM
6 | CN1C2CCC1C(C(=O)N1CCCC1)C(c1ccc(Cl)cc1)C2 (centres unmarked) [RTI-147] | 5.7 μmol/hg |  | 12400 nM |  | about one-half as potent as cocaine | IC50 (Dopamine transporter; [7]): 1.38 nM; IC50 [3, 8]: 3950 nM
7 | COC(=O)C1C2CC[C@H](C[C@@H]1c1ccc(N)cc1)N2C (some centres unmarked) [RTI-29] | 6.8 μmol/hg | 9.8 nM | 5110 nM | 151 nM | one-half as potent as cocaine; also recorded: approximately the same activity as WIN 35,065-2 | 
8 | COC(=O)[C@H]1[C@@H](c2ccc(Cl)c(C)c2)C[C@@H]2CC[C@H]1N2C [RTI-112] | 3.5 μmol/hg | 0.8 nM | 10.5 nM | 36.2 nM | approximately the same activity as cocaine; also recorded: approximately twice as potent as WIN 35,065-2 | AD50 Hypothermia [2]: 1.5 μmol/hg; Blockade of nicotine-induced hypothermia (in words) [2]: significantly blocked
9 | Cc1ccc([C@H]2C[C@@H]3CC[C@H]([C@H]2C(=O)Oc2ccccc2)N3C)cc1 [RTI-120] | 4.0 μmol/hg | 3.26 nM | 24500 nM | 5830 nM | only one-half as potent as RTI-32 | 
10 | CC(C)OC(=O)[C@@H]1C2CC[C@H](C[C@@H]1c1ccc(Cl)cc1)N2C [RTI-114] | 5.3 μmol/hg | 1.4 nM | 1400 nM | 778 nM |  | AD50 Hypothermia [2]: 9 μmol/hg
11 | CC(N)Cc1ccccc1 (centres unmarked) [Amphetamine, reference compound] |  |  |  |  |  | AD50, nicotine-induced antinociception in tail-flick test ([1]; s.c. administration, mice): 36.9 μmol/hg; Blockade of nicotine-induced antinociception (in words) ([1]; tail-flick, mice): blocked nicotine-induced antinociception
12 | CC(C)OC(=O)C1C(c2ccc(I)cc2)CC2CCC1N2C (centres unmarked) [RTI-121] | 0.3 μmol/hg |  |  |  |  | Fold more potent than cocaine in blocking nicotine's antinociceptive effect ([1]; tail-flick, mice): 10 fold; AD50 Hypothermia [2]: 49 μmol/hg; Blockade of nicotine-induced hypothermia (in words) [2]: significantly blocked; Fold less potent in blocking nicotine hypothermia than antinociception [2]: > 100 fold; IC50 (Dopamine transporter; [7]): 0.4 nM; IC50 [3, 8]: 285 nM
13 | CCN(CC)CCOC(=O)c1ccc(N)cc1 [Procaine, reference compound] |  |  |  |  |  | Tail-flick, % blockade @ dose ([1]; @ 75 μmol/hg): 5% @ 75; Blockade of nicotine-induced antinociception (in words) ([1]; tail-flick, mice): failed to significantly block
14 | COC(=O)[C@H]1[C@@H](c2ccc(Cl)cc2)C[C@@H]2CC[C@H]1N2 [RTI-110] | 1.0 μmol/hg | 0.62 nM | 4.1 nM | 5.45 nM |  | Fold more potent than cocaine in blocking nicotine's antinociceptive effect ([1]; tail-flick, mice): 3 fold
15 | COC(=O)C(c1ccccc1)C1CCCCN1 (centres unmarked) [Methylphenidate, reference compound] |  |  |  |  |  | Tail-flick, % blockade @ dose ([1]; @ 74 μmol/hg): 5% @ 74; Blockade of nicotine-induced antinociception (in words) ([1]; tail-flick, mice): failed to block
